# Measured values reported in US12059405B1, “3-(2,4,5-tris(4-chlorophenyl)-1H-imidazol-1-yl) propanoic acid as an antimicrobial compound” (KING FAISAL UNIVERSITY, priority 2023, dated 2024).
# How the values were obtained:
# Assay type in all cases: cell-based
# Bacillus cereus = assay: Agar plate disc-diffusion, antibacterial, Bacillus cereus; settings: nutrient agar, 37° C., 48 hours, DMSO control zone subtracted
# Description: (§1) The agar plate disc-diffusion method was applied. […] The discs were then placed onto the surface of agar plates (nutrient agar for bacteria and Sabouraud's dextrose agar for fungi) seeded with the test organism. Each plate contained 15 mL of the agar medium, previously seeded with 0.2 mL of the broth culture of each organism pregrown for 18 hours. The plates were incubated at 37° C. for 48 hours, and 72 hours for fungi. The inhibition zones was measured in mm. Discs impregnated with DMSO were used as a control, and its inhibition zone was subtracted from the tested compound actual inhibition zone.
# Staphylococcus aureus = assay: Agar plate disc-diffusion, antibacterial, Staphylococcus aureus; settings: nutrient agar, 37° C., 48 hours, DMSO control zone subtracted
# Description: as §1
# Pseudomonas aeruginosa = assay: Agar plate disc-diffusion, antibacterial, Pseudomonas aeruginosa; settings: nutrient agar, 37° C., 48 hours, DMSO control zone subtracted
# Description: as §1
# Escherichia coli = assay: Agar plate disc-diffusion, antibacterial, Escherichia coli; settings: nutrient agar, 37° C., 48 hours, DMSO control zone subtracted
# Description: as §1
# Aspergillus flavus = assay: Agar plate disc-diffusion, antifungal, Aspergillus flavus; settings: Sabouraud's dextrose agar, 37° C., 72 hours, DMSO control zone subtracted
# Description: as §1
# [1] = tested on: Chrysosporium keratinophilum; assay: Agar plate disc-diffusion, antifungal, Chrysosporium keratinophilum; settings: Sabouraud's dextrose agar, 37° C., 72 hours, DMSO control zone subtracted
# Description: as §1
# [2] = A = concentration of comp. = 10,000 μL
# [3] = B = concentration of comp. = 30,000 μL
# [4] = C = concentration of comp. = 50,000 μL
smiles,measurement,setting,value
"O=C(O)CCn1c(-c2ccc(Cl)cc2)nc(-c2ccc(Cl)cc2)c1-c1ccc(Cl)cc1 [V, 3-(2,4,5-tris(4-chlorophenyl)-1H-imidazol-1-yl)propanoic acid]","inhibition zone, Bacillus Cereus, A",Bacillus cereus; [2],21 mm
same,"inhibition zone, Bacillus Cereus, B",Bacillus cereus; [3],29 mm
same,"inhibition zone, Bacillus Cereus, C",Bacillus cereus; [4],38 mm
same,"inhibition zone, Staphylococcus aureus, A",Staphylococcus aureus; [2],19 mm
same,"inhibition zone, Staphylococcus aureus, B",Staphylococcus aureus; [3],23 mm
same,"inhibition zone, Staphylococcus aureus, C",Staphylococcus aureus; [4],36 mm
same,"inhibition zone, Pseudomonas aeruginosa, A",Pseudomonas aeruginosa; [2],25 mm
same,"inhibition zone, Pseudomonas aeruginosa, B",Pseudomonas aeruginosa; [3],26 mm
same,"inhibition zone, Pseudomonas aeruginosa, C",Pseudomonas aeruginosa; [4],37 mm
same,"inhibition zone, Escherichia coli, A",Escherichia coli; [2],27 mm
same,"inhibition zone, Escherichia coli, B",Escherichia coli; [3],36 mm
same,"inhibition zone, Escherichia coli, C",Escherichia coli; [4],48 mm
same,"inhibition zone, Aspergillus flavus, A",Aspergillus flavus; [2],19 mm
same,"inhibition zone, Aspergillus flavus, B",Aspergillus flavus; [3],24 mm
same,"inhibition zone, Aspergillus flavus, C",Aspergillus flavus; [4],32 mm
same,"inhibition zone, Chrysosporium keratinophilum, A",[1]; [2],25 mm
same,"inhibition zone, Chrysosporium keratinophilum, B",[1]; [3],26 mm
same,"inhibition zone, Chrysosporium keratinophilum, C",[1]; [4],45 mm
